Where two headings read alike, the source gives them in different places.
Assays:
THP-1 cells = assay: Measurement of IL-1β production, hTRF protocol (second alternative procedure), THP-1 cells; assay type: cell-based, human; conditions: read-out: NLRP3 hILIB EC50
How it was run: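 Compounds, dilution series starting at a final 10 μM, were incubated 2 hours at 37° C with PMA-differentiated THP-1 cells (50 ng/ml overnight; 50,000 cells/well, 2% FBS RPMI). Released IL-1β quantified in supernatant by hTRF kit with 1:40 antibody dilution, 4° C overnight, 665/615 nm ratio.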

TLR8 = molecular target: T1, TLR8 (Homo sapiens, UniProt Q9NR97); assay: In vitro human TLR8 binding reporter assay (HEK-Blue, NF-kB/AP1-inducible SEAP); assay type: cell-based; conditions: read-out: TLR8 Agonist EC50
T1 construct: human HEK-Blue cells co-expressing a TLR7 or TLR8 gene
T1 sequence (Q9NR97 27-1041): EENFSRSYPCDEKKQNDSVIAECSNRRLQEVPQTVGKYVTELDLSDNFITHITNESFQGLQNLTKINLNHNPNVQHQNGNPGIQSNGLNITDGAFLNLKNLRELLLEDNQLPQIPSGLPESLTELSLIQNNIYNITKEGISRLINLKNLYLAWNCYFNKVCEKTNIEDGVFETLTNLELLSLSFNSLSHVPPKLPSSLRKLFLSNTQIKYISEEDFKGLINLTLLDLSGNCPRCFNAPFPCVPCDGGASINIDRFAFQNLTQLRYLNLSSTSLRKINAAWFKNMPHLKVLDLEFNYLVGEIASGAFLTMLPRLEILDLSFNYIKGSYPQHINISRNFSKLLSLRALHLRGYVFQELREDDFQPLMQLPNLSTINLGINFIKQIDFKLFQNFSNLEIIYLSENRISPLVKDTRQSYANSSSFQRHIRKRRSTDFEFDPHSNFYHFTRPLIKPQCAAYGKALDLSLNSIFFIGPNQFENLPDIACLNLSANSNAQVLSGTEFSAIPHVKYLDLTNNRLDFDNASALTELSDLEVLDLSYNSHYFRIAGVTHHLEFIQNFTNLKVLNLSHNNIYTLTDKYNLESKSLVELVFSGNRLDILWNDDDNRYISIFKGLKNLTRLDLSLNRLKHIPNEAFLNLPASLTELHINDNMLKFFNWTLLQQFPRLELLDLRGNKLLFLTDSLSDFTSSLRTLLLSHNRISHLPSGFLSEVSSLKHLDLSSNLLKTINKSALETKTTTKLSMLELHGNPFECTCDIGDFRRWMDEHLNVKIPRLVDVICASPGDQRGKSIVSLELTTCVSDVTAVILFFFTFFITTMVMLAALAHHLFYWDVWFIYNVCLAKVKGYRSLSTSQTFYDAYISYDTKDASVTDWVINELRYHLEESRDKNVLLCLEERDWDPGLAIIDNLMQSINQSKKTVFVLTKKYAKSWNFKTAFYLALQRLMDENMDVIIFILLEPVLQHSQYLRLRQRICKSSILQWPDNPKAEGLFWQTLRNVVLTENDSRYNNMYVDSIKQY
How it was run: (§1)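 EC50s come from NF-kB/AP1-driven SEAP secretion in HEK-Blue cells expressing TLR7 or TLR8, measured with Quanti-Blue after an 18 h compound incubation. Maximal response is defined by a 50 μM reference standard.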

TLR7 = molecular target: T2, TLR7 (Homo sapiens, UniProt Q9NYK1); assay: In vitro human TLR7 binding reporter assay (HEK-Blue, NF-kB/AP1-inducible SEAP); assay type: cell-based; conditions: read-out: TLR7 Agonist EC50
T2 construct: human HEK-Blue cells co-expressing a TLR7 or TLR8 gene
T2 sequence (Q9NYK1 27-1049): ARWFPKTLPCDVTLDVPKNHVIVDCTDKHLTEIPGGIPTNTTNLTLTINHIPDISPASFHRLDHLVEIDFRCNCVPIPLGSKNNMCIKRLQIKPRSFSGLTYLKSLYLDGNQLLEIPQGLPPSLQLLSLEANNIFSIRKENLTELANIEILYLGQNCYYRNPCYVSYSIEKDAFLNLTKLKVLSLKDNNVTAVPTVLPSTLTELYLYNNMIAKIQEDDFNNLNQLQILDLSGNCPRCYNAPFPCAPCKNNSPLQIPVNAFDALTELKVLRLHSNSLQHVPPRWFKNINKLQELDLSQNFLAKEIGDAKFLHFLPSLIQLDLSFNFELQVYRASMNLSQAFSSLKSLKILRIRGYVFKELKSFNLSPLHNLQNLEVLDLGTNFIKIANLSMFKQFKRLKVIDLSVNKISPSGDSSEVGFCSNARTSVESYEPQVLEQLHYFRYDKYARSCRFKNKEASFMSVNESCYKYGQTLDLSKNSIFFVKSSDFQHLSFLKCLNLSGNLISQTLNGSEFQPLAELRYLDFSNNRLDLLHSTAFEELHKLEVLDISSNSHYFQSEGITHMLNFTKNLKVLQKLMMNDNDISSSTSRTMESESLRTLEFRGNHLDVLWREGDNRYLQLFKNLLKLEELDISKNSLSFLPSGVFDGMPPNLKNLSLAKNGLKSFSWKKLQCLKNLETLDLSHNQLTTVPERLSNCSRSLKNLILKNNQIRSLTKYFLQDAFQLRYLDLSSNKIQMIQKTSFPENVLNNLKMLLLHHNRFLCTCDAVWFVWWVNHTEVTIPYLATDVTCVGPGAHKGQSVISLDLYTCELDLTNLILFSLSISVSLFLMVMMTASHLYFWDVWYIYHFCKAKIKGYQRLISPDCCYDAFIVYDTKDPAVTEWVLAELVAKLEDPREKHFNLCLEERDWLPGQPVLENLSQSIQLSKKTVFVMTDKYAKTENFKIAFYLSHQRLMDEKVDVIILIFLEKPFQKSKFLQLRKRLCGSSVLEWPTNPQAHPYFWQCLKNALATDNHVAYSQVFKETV
How it was run: as §1

[1] = Homo sapiens, THP-1, IL-1β production, human cells
[2] = Homo sapiens, THP-1, IL-1β production, human

Compound: CN(C)C(=O)CCn1cc2c(N)nc3cc(-c4cc[nH]n4)ccc3c2n1 [Example 506]
- EC50 (THP-1 cells; [1]): 1400 nM
- EC50 (TLR8; activity range): > 100 µM
- EC50 (TLR7; activity range): > 100 µM

Compound: CC(CCO)n1cc2c(N)nc3cc(-c4cc[nH]n4)ccc3c2n1 (single isomer, unassigned) [Example 287, 3-(4-amino-7-(1H-pyrazol-3-yl)-2H-pyrazolo[4,3-c]quinolin-2-yl)butan-1-ol]
- EC50 (THP-1 cells; [2]): 260 nM
- EC50 (TLR8; activity range class): > 100 µM
- EC50 (TLR7; activity range class): > 100 µM

Compound: Nc1nc2cc(-c3cc[nH]n3)ccc2c2n[nH]cc12 [Example 457, 7-(1H-pyrazol-3-yl)-2H-pyrazolo[4,3-c]quinolin-4-amine]
- EC50 (THP-1 cells; [1]): 160 nM
- EC50 (TLR8; activity range): > 100 µM
- EC50 (TLR7; activity range): > 100 µM

Compound: COc1ccc(C(=O)NCCn2cc3c(N)nc4cc(-c5cc[nH]n5)ccc4c3n2)nc1 [Example 202]
- EC50 (THP-1 cells; [2]): 660 nM
- EC50 (TLR8; activity range class): > 100 µM
- EC50 (TLR7; activity range class): > 100 µM

Compound: Nc1nc2cc(-c3cc[nH]n3)ccc2c2cn(CCNC(=O)c3cccnn3)nc12 [Example 73]
- EC50 (THP-1 cells; [2]): 2960 nM
- EC50 (TLR8; activity range class): > 100 µM
- EC50 (TLR7; activity range class): > 100 µM

Compound: Nc1nc2cc(-c3cc[nH]n3)ccc2c2[nH]c(CNC(=O)c3ccc(F)cn3)cc12 [Example 418]
- EC50 (THP-1 cells; [1]): 3650 nM
- EC50 (TLR8; activity range): > 100 µM
- EC50 (TLR7; activity range): > 100 µM

Compound: Nc1nc2cc(-c3ccn[nH]3)ccc2c2nn(CC3(C(=O)NCc4ccccn4)CC3)cc12 [Example 605]
- EC50 (THP-1 cells; [1]): 22400 nM
- EC50 (TLR8; activity range): > 100 µM
- EC50 (TLR7; activity range): > 100 µM

Compound: Nc1nc2cc(-c3cc[nH]n3)ccc2c2nn(C3COCC3O)cc12 (single isomer, unassigned) [Example 325]
- EC50 (THP-1 cells; IL-1β production, human): 1490 nM
- EC50 (TLR8; activity range class): > 100 µM
- EC50 (TLR7; activity range class): > 100 µM

Compound: Nc1nc2cc(-c3ccn[nH]3)ccc2c2nn(CCN3CCC3)cc12 [Example 271]
- EC50 (THP-1 cells; [2]): 1070 nM
- EC50 (TLR8; activity range class): > 100 µM
- EC50 (TLR7; activity range class): > 100 µM

Compound: CC(C(=O)N1CCS(=O)(=O)CC1)n1cc2c(N)nc3cc(-c4ccn[nH]4)ccc3c2n1 (stereo not drawn) [Example 575]
- EC50 (THP-1 cells; [1]): 19700 nM
- EC50 (TLR8; activity range): > 100 µM
- EC50 (TLR7; activity range): > 100 µM

Compound: Cc1ccccc1CNCCn1cc2c(n1)c(N)nc1cc(-c3cc[nH]n3)ccc12 [Example 105, 2-(2-{[(2-methylphenyl)methyl]amino}ethyl)-7-(1H-pyrazol-3-yl)-2H-pyrazolo[3,4-c]quinolin-4-amine]
- EC50 (THP-1 cells; [2]): 980 nM
- EC50 (TLR8; activity range class): > 100 µM
- EC50 (TLR7; activity range class): 20 to 100 µM

Compound: CN1CCOC(C(=O)NCCn2cc3c(n2)c(N)nc2cc(-c4cc[nH]n4)ccc23)C1 (single isomer, unassigned) [Example 180]
- EC50 (THP-1 cells; IL-1β production, human): 36700 nM
- EC50 (TLR8; activity range class): > 100 µM
- EC50 (TLR7; activity range class): > 100 µM

Compound: CC(N)Cn1cc2c(N)nc3cc(-c4ccn[nH]4)ccc3c2n1 (stereo not drawn) [Example 257]
- EC50 (THP-1 cells; [2]): 860 nM
- EC50 (TLR8; activity range class): > 100 µM
- EC50 (TLR7; activity range class): > 100 µM

Compound: CC(O)CCn1cc2c(N)nc3cc(-c4ccn[nH]4)ccc3c2n1 (stereo not drawn) [Example 284]
- EC50 (THP-1 cells; [2]): 250 nM
- EC50 (TLR8; activity range class): > 100 µM
- EC50 (TLR7; activity range class): > 100 µM

Compound: Nc1nc2cc(-c3cc[nH]n3)ccc2c2nn(CCC(F)(F)F)cc12 [Example 348]
- EC50 (THP-1 cells; [2]): 620 nM
- EC50 (TLR8; activity range class): > 100 µM
- EC50 (TLR7; activity range class): > 100 µM

Compound: Cc1nc(C(=O)NCCn2cc3c(n2)c(N)nc2cc(-c4cc[nH]n4)ccc23)ccc1C(F)(F)F [Example 56]
- EC50 (THP-1 cells; [2]): 310 nM
- EC50 (TLR8; activity range class): 1 to 20 µM
- EC50 (TLR7; activity range class): 20 to 100 µM

From patent US12037344B2, “NLRP3 modulators” (INNATE TUMOR IMMUNITY, INC., priority 2018, dated 2024)
